Our source for the Kd and IC50 values is patent US12428416B2 (California Institute of Technology, priority 2018, dated 2025).

The target of one experiment is ERK2 (Homo sapiens, UniProt P28482). Briefly: ERK1 and 2 Enzymatic Inhibition Assay (ERK2). The format is biochemical. Particulars: 10 assay concentrations 2×10^−6 M to 6×10^−11 M, 1% DMSO. On the procedure:
(§1) ERK1 and 2 Enzymatic Inhibition Assay
(§2) For the Ki determination assay, 200 μM stock solutions of compounds were subjected to a serial, semi-logarithmic dilution using 100% DMSO as a solvent. 10 distinct concentrations were prepared, with a dilution endpoint of 6×10^−9 M in 100% DMSO. 100% DMSO was used as a control. 10 μL from each of the serial dilutions were aliquoted into separate wells of a 96-well plate and 90 μL of water were added to each of those wells. The plate was shaken thoroughly, and 5 μL from each of the plate's wells were transferred into wells of the assay plate. The final volume of wells in the assay plate was 50 μL. All compounds were tested at 10 assay concentrations in the range from 2×10^−6 M to 6×10^−11 M. The final DMSO concentration in the wells of the assay plate was 1% in all cases.

The subject of experiment [1] is drug-sensitive cell lines of Table 4. The experiment can be described thus: Cell line growth retardation assay, average over sensitive cohort. In kind it is cell-based, Human. Particulars: geometric mean of IC50s over sensitive cohort (Table 4), 6 days growth, read-out: AvgSens IC50. On the procedure:
(§3) Cell Line Growth Retardation Assay
(§4) Cells were seeded at densities of 1,000-5,000 cells per well in 48-well tissue culture plates. After a 24 h rest period, cells were treated with compound at 10 μM, 2 μM, 0.4 μM, 0.08 μM, 0.016 μM, and 0.0032 μM. A group of cells were treated with the vehicle in which the compound was prepared and served as a control. The cells were grown in the presence of compounds for 6 days and were counted on day 0 and day 6. All cell counting was performed using a Synentec Cellavista plate imager. […] Growth inhibition was calculated as a ratio of cell population doublings in the presence of compound versus the absence of compound. […] IC50 values for each compound were calculated by fitting curves to data points from each dose-response assay using the Proc NLIN function in SAS for Windows version 9.2 (SAS Institute, Inc.).
(§5) Designation of Sensitivity and Resistant Cohorts and Calculation of Average IC50 Values
(§6) Human cancer cell lines were grouped as “sensitive” or “resistant” to ERK1 inhibition based on whether their growth was retarded by KO-947 (i.e., 1,5,6,8-tetrahydro-6-(phenylmethyl)-3-(4-pyridinyl)-7H-pyrazolo[4,3-g]quinazolin-7-one) and SCH772984 (i.e., (3R)-1-[2-oxo-2-[4-[4-(2-pyrimidinyl)phenyl]-1-piperazinyl]ethyl]-N-[3-(4-pyridinyl)-1H-indazol-5-yl]-3-pyrrolidinecarboxamide) (data not shown; see Table 4). These sensitive and resistant cohorts were interrogated for response to each compound, and IC50s were calculated for each cell line using the same technique described above. Average IC50s for the sensitive and resistant cohorts were calculated as geometric means of the group.

The target of the next experiment is ERK1 (Homo sapiens, UniProt P27361). Briefly: ERK1 and 2 Enzymatic Inhibition Assay (ERK1). The format is biochemical. Particulars: 10 assay concentrations 2×10^−6 M to 6×10^−11 M, 1% DMSO. On the procedure:
as §1, §2

Experiment [2] deals with drug-resistant cell lines of Table 4. The experiment can be described thus: Cell line growth retardation assay, average over resistant cohort. The format is cell-based, Human. Particulars: geometric mean of IC50s over resistant cohort (Table 4), 6 days growth, read-out: AvgRes IC50. On the procedure: as §3, §4, §5, §6

Like-named read-outs stand apart in the source and are kept apart here. Some results are limits rather than exact numbers.

Sequence of ERK2 (P28482 whole entry): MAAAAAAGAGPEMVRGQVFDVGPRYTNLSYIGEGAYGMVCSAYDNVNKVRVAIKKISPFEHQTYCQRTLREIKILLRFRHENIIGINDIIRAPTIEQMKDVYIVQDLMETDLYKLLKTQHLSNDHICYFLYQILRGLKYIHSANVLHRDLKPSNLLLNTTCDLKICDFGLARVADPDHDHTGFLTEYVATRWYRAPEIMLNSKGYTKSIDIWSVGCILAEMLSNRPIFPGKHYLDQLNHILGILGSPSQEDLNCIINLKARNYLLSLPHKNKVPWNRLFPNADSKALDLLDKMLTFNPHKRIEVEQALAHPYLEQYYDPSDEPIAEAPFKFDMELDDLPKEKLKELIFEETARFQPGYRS
Sequence of ERK1 (P27361 whole entry): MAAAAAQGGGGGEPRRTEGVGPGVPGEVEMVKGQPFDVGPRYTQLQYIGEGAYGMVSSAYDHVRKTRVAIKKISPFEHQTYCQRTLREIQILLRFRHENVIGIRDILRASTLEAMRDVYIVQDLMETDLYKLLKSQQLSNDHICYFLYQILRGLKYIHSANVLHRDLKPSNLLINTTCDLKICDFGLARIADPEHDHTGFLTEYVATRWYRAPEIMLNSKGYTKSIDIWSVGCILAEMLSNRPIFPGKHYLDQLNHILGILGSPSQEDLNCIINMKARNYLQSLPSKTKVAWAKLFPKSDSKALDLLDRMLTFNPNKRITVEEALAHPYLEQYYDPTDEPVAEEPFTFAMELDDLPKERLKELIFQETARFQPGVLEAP

In the case of `CC(NC(=O)c1ncc(-c2c[nH]c3ncc(N4C[C@@H](C)O[C@@H](C)C4)cc23)cn1)c1ccccc1` (stereo in doubt) [Compound 36, 5-(5-((2R,6S)-2,6-dimethylmorpholino)-1H-pyrrolo[2,3-b]pyridin-3-yl)-N—((R)-1-phenylethyl)pyrimidine-2-carboxamide], the Kd was 11 to 100 nM on ERK2 and at most 10 nM on ERK1. For the same molecule, the IC50 in experiment [1] (Homo sapiens, 144 h) was over 500 nM; in experiment [2] (Homo sapiens, 144 h), over 500 nM.

As for `CC(NC(=O)c1ncc(-c2c[nH]c3ncc(N4CCO[C@@H](C)C4)cc23)cn1)c1ccccc1` (stereo in doubt) [Compound 37, 5-(5-((S)-2-methylmorpholino)-1H-pyrrolo[2,3-b]pyridin-3-yl)-N—((R)-1-phenylethyl)pyrimidine-2-carboxamide], the Kd at ERK2 was 11 to 100 nM; on ERK1, at most 10 nM. Moreover, the IC50 is over 500 nM in experiment [1] (Homo sapiens, 144 h) and over 500 nM in experiment [2] (Homo sapiens, 144 h).

`CC(NC(=O)c1ncc(-c2c[nH]c3ncc(N4CCOC(C)(C)C4)cc23)cn1)c1ccccc1` (stereo in doubt) [Compound 38, (R)-5-(5-(2,2-dimethylmorpholino)-1H-pyrrolo[2,3-b]pyridin-3-yl)-N-(1-phenylethyl)pyrimidine-2-carboxamide]: the Kd on ERK2 and at ERK1 was 11 to 100 nM each time. The IC50 in experiment [1] (Homo sapiens, 144 h) is over 500 nM; in experiment [2] (Homo sapiens, 144 h), over 500 nM.

Take `Cc1cc(-c2cnc3[nH]cc(-c4cnc(C(=O)NC(C)c5ccccc5)nc4)c3c2)ccn1` (stereo in doubt) [Compound 40, (R)-5-(5-(2-methylpyridin-4-yl)-1H-pyrrolo[2,3-b]pyridin-3-yl)-N-(1-phenylethyl)pyrimidine-2-carboxamide]: the Kd at ERK2 and at ERK1 was at most 10 nM each time. In addition, the IC50 in experiment [1] (Homo sapiens, 144 h) is at most 250 nM; in experiment [2] (Homo sapiens, 144 h) it was over 500 nM.

As to `COc1cc(-c2cnc3[nH]cc(-c4cnc(C(=O)NC(C)c5ccccc5)nc4)c3c2)ccn1` (stereo in doubt) [Compound 41, (R)-5-(5-(2-methoxypyridin-4-yl)-1H-pyrrolo[2,3-b]pyridin-3-yl)-N-(1-phenylethyl)pyrimidine-2-carboxamide], the Kd at ERK2 and on ERK1 was at most 10 nM in each case. Further, the IC50 is at most 250 nM in experiment [1] (Homo sapiens, 144 h) and over 500 nM in experiment [2] (Homo sapiens, 144 h).

Take `CC(NC(=O)c1ncc(-c2c[nH]c3ncc(N4CC5(COC5)C4)cc23)cn1)c1ccccc1` (stereo in doubt) [Compound 42, (R)-5-(5-(2-oxa-6-azaspiro[3.3]heptan-6-yl)-1H-pyrrolo[2,3-b]pyridin-3-yl)-N-(1-phenylethyl)pyrimidine-2-carboxamide]: the Kd at ERK2 and at ERK1 was at most 10 nM throughout. In addition, the IC50 in experiment [1] (Homo sapiens, 144 h) is over 500 nM; in experiment [2] (Homo sapiens, 144 h), over 500 nM.

With `CC(NC(=O)c1ncc(-c2c[nH]c3ncc(N4CCC45COC5)cc23)cn1)c1ccccc1` (stereo in doubt) [Compound 43, (R)-5-(5-(6-oxa-1-azaspiro[3.3]heptan-6-yl)-1H-pyrrolo[2,3-b]pyridin-3-yl)-N-(1-phenylethyl)pyrimidine-2-carboxamide], the Kd at ERK2 was over 100 nM; at ERK1 it was 11 to 100 nM. In addition, the IC50 in experiment [1] (Homo sapiens, 144 h) is over 500 nM; in experiment [2] (Homo sapiens, 144 h) it was over 500 nM.

In the case of `O=C(NC(c1ccccc1)C(F)(F)F)c1ncc(-c2c[nH]c3ncc(N4CCOCC4)cc23)cn1` (stereo in doubt) [Compound 47, (S)-5-(5-morpholino-1H-pyrrolo[2,3-b]pyridin-3-yl)-N-(2,2,2-trifluoro-1-phenylethyl)pyrimidine-2-carboxamide], the Kd at ERK2 and on ERK1 was at most 10 nM in each case. In addition, the IC50 in experiment [1] (Homo sapiens, 144 h) was 251 to 500 nM; in experiment [2] (Homo sapiens, 144 h), over 500 nM.

Turning to `O=C(NC(CO)c1ccccc1)c1ncc(-c2c[nH]c3ncc(N4CCOCC4)cc23)cn1` (stereo in doubt) [Compound 53, (S)—N-(2-hydroxy-1-phenylethyl)-5-(5-morpholino-1H-pyrrolo[2,3-b]pyridin-3-yl)pyrimidine-2-carboxamide], the Kd at ERK2 and on ERK1 was at most 10 nM in each case. Besides, the IC50 in experiment [1] (Homo sapiens, 144 h) is over 500 nM; in experiment [2] (Homo sapiens, 144 h) it was over 500 nM.

As to `O=C(Nc1ccccc1)c1ncc(-c2c[nH]c3ncc(N4CCOCC4)cc23)cn1` [Compound 23, 5-(5-morpholino-1H-pyrrolo[2,3-b]pyridin-3-yl)-N-phenylpyrimidine-2-carboxamide], the Kd at ERK2 and on ERK1 was over 100 nM each time.

With `C[C@@H](Cc1ccccc1)NC(=O)c1ncc(-c2c[nH]c3ncc(N4CCOCC4)cc23)cn1` [Compound 30, (S)-5-(5-morpholino-1H-pyrrolo[2,3-b]pyridin-3-yl)-N-(1-phenylpropan-2-yl)pyrimidine-2-carboxamide], the Kd at ERK2 and at ERK1 was over 100 nM in each case.

In the case of `C[C@@H](CNC(=O)c1ncc(-c2c[nH]c3ncc(N4CCOCC4)cc23)cn1)c1ccccc1` [Compound 33], the Kd at ERK2 and on ERK1 was 11 to 100 nM each time.

In the case of `C[C@H](NC(=O)c1ncc(-c2c[nH]c3ncc(N4CCOCC4)cc23)cn1)c1ccccc1C#N` [Compound 48, (S)—N-(1-(2-cyanophenyl)ethyl)-5-(5-morpholino-1H-pyrrolo[2,3-b]pyridin-3-yl)pyrimidine-2-carboxamide], the Kd on ERK2 was 11 to 100 nM; on ERK1 it was at most 10 nM.

Take `c1ccc([C@@H]2COC(c3ncc(-c4c[nH]c5ncc(N6CCOCC6)cc45)cn3)=N2)cc1` [Compound 52, (R)-4-(3-(2-(4-phenyl-4,5-dihydrooxazol-2-yl)pyrimidin-5-yl)-1H-pyrrolo[2,3-b]pyridin-5-yl)morpholine]: the IC50 in experiment [1] and in experiment [2] was over 500 nM in each case.

Consider `c1ccc([C@@H]2CN=C(c3ncc(-c4c[nH]c5ncc(N6CCOCC6)cc45)cn3)O2)cc1` [Compound 54, (R)-4-(3-(2-(5-phenyl-4,5-dihydrooxazol-2-yl)pyrimidin-5-yl)-1H-pyrrolo[2,3-b]pyridin-5-yl)morpholine], for which the IC50 in experiment [2] was over 500 nM.

As for `O=C(NCCc1ccccc1F)c1ncc(-c2c[nH]c3ncc(N4CCOCC4)cc23)cn1` [Compound 58, N-(2-fluorophenethyl)-5-(5-morpholino-1H-pyrrolo[2,3-b]pyridin-3-yl)pyrimidine-2-carboxamide], the Kd at ERK2 and at ERK1 was at most 10 nM in each case.

Consider `O=C(NCCc1ccccc1C(F)(F)F)c1ncc(-c2c[nH]c3ncc(N4CCOCC4)cc23)cn1` [Compound 59, 5-(5-morpholino-1H-pyrrolo[2,3-b]pyridin-3-yl)-N-(2-(trifluoromethyl)phenethyl)pyrimidine-2-carboxamide], for which the Kd at ERK2 was at most 10 nM; on ERK1, 11 to 100 nM.

Turning to `O=C(NCCc1cccc(F)c1)c1ncc(-c2c[nH]c3ncc(N4CCOCC4)cc23)cn1` [Compound 63, N-(3-fluorophenethyl)-5-(5-morpholino-1H-pyrrolo[2,3-b]pyridin-3-yl)pyrimidine-2-carboxamide], the dissociation constant Kd at ERK2 and at ERK1 was 11 to 100 nM each time.

As for `O=C(NCCc1cccc(C(F)(F)F)c1)c1ncc(-c2c[nH]c3ncc(N4CCOCC4)cc23)cn1` [Compound 64, 5-(5-morpholino-1H-pyrrolo[2,3-b]pyridin-3-yl)-N-(3-(trifluoromethyl)phenethyl)pyrimidine-2-carboxamide], the Kd on ERK2 and on ERK1 was 11 to 100 nM throughout.

`C[C@H](NC(=O)c1ncc(-c2c[nH]c3ncc(NCCO)cc23)cn1)c1ccccc1` [Compound 68]: the Kd at ERK2 and at ERK1 was 11 to 100 nM each time.
